# The source made the active and inactive calls. No cut-off for these calls is given here.
# Tests used:
# Rattus norvegicus [1] = assay: Neurotoxicity in albino Sprague-Dawley rat assessed as behavioral impairment at 30 mg/kg, po after 1 hr by rotorod test; format: toxicity, organism-based; details: in vivo
# Rattus norvegicus [2] = assay: Neurotoxicity in albino Sprague-Dawley rat assessed as behavioral impairment at 30 mg/kg, ip after 2 hrs by rotorod test; format: toxicity, organism-based; details: in vivo
# [3] = Protective index, ratio of TD50 for neurotoxicity in ip dosed albino CF1 mouse to ED50 for anticonvulsant activity in ip dosed maximal electroshock-induced seizure albino CF1 mouse model; format: toxicity, organism-based; details: in vivo, read-out: Ratio TD50/ED50
# Rattus norvegicus [4] = assay: Anticonvulsant activity in albino Sprague-Dawley rat assessed as protection against maximal electroshock-induced seizures at 30 mg/kg, ip after 0.5 hrs; format: functional, organism-based
# Rattus norvegicus [5] = assay: Neurotoxicity in albino Sprague-Dawley rat assessed as behavioral impairment at 30 mg/kg, ip after 1 hr by rotorod test; format: toxicity, organism-based; details: in vivo
# Mus musculus [6] = assay: Neurotoxicity in albino CF1 mouse assessed as behavioral impairment at 30 mg/kg, ip after 0.5 hrs by rotorod test; format: toxicity, organism-based; details: in vivo
# Rattus norvegicus [7] = assay: Neurotoxicity in albino Sprague-Dawley rat assessed as behavioral impairment at 30 mg/kg, po after 0.5 hrs by rotorod test; format: toxicity, organism-based; details: in vivo
# Mus musculus [8] = assay: Anticonvulsant activity in ip dosed albino CF1 mouse assessed as protection against subcutaneous metrazol-induced seizures by measuring time to peak effect; format: functional
# Mus musculus [9] = assay: Anticonvulsant activity in ip dosed albino CF1 mouse assessed as protection against 6 Hz current-induced seizure by measuring time to peak effect; format: functional
# Mus musculus [10] = assay: Neurotoxicity in albino CF1 mouse assessed as behavioral impairment at 30 mg/kg, ip after 2 hrs by rotorod test; format: toxicity, organism-based; details: in vivo
# Mus musculus [11] = assay: Anticonvulsant activity in albino CF1 mouse assessed as protection against 44 mA current-induced seizure at 100 mg/kg, ip after 0.5 hrs by 6 Hz psychomotor test; format: functional, organism-based
# Rattus norvegicus [12] = assay: Neurotoxicity in albino Sprague-Dawley rat assessed as behavioral impairment at 30 mg/kg, po after 2 hrs by rotorod test; format: toxicity, organism-based; details: in vivo
# Mus musculus [13] = assay: Anticonvulsant activity in ip dosed albino CF1 mouse assessed as protection against maximal electroshock-induced seizures; format: functional
# Rattus norvegicus [14] = assay: Neurotoxicity in albino Sprague-Dawley rat assessed as behavioral impairment at 30 mg/kg, ip after 0.5 hrs by rotorod test; format: toxicity, organism-based; details: in vivo
# Mus musculus [15] = assay: Neurotoxicity in albino CF1 mouse assessed as behavioral impairment at 100 mg/kg, ip after 0.5 hrs by rotorod test; format: toxicity, organism-based; details: in vivo
# Mus musculus [16] = assay: Neurotoxicity in albino CF1 mouse assessed as behavioral impairment at 300 mg/kg, ip after 0.5 hrs by rotorod test; format: toxicity, organism-based; details: in vivo
# Mus musculus [17] = assay: Anticonvulsant activity in albino CF1 mouse assessed as protection against 32 mA current-induced seizure at 30 mg/kg, ip after 2 hrs by 6 Hz psychomotor test; format: functional, organism-based
# [18] = Neurotoxicity in ip dosed albino CF1 mouse assessed as motor impairment by rotorod test; format: toxicity, organism-based; details: in vivo
# Mus musculus [19] = assay: Anticonvulsant activity in ip dosed albino CF1 mouse assessed as protection against subcutaneous metrazol-induced seizures; format: functional
# [20] = Protective index, ratio of TD50 for neurotoxicity in ip dosed albino CF1 mouse to ED50 for anticonvulsant activity in ip dosed […] metrazol-induced seizure albino CF1 mouse model; format: toxicity, organism-based; details: in vivo, read-out: Ratio TD50/ED50
# Mus musculus [21] = assay: Neurotoxicity in albino CF1 mouse assessed as behavioral impairment at 100 mg/kg, ip after 2 hrs by rotorod test; format: toxicity, organism-based; details: in vivo
# Mus musculus [22] = assay: Anticonvulsant activity in albino CF1 mouse assessed as protection against maximal electroshock-induced seizures at 100 mg/kg, ip after 0.5 hrs; format: functional, organism-based
# Rattus norvegicus [23] = assay: Neurotoxicity in albino Sprague-Dawley rat assessed as behavioral impairment at 30 mg/kg, ip after 0.25 hrs by rotorod test; format: toxicity, organism-based; details: in vivo
# Mus musculus [24] = assay: Neurotoxicity in albino CF1 mouse assessed as behavioral impairment at 300 mg/kg, ip after 2 hrs by rotorod test; format: toxicity, organism-based; details: in vivo
# Mus musculus [25] = assay: Anticonvulsant activity in ip dosed albino CF1 mouse assessed as protection against maximal electroshock-induced seizures by measuring time to peak effect; format: functional
# Mus musculus [26] = assay: Anticonvulsant activity in albino CF1 mouse assessed as protection against maximal electroshock-induced seizures at 30 mg/kg, ip after 2 hrs; format: functional, organism-based
# Mus musculus [27] = assay: Neurotoxicity in albino CF1 mouse assessed as behavioral impairment at 100 mg/kg, ip after 1 hr by rotorod test; format: toxicity, organism-based; details: in vivo
# Mus musculus [28] = assay: Anticonvulsant activity in albino CF1 mouse assessed as protection against 44 mA current-induced seizure at 100 mg/kg, ip after 0.25 hrs by 6 Hz psychomotor test; format: functional, organism-based
# Mus musculus [29] = assay: Neurotoxicity in albino CF1 mouse assessed as behavioral impairment at 100 mg/kg, ip after 0.25 hrs by rotorod test; format: toxicity, organism-based; details: in vivo
# Mus musculus [30] = assay: Anticonvulsant activity in albino CF1 mouse assessed as protection against maximal electroshock-induced seizures at 100 mg/kg, ip after 2 hrs; format: functional, organism-based
# Mus musculus [31] = assay: Anticonvulsant activity in ip dosed albino CF1 mouse assessed as protection against 6 Hz current-induced seizures by psychomotor test; format: functional
# Rattus norvegicus [32] = assay: Neurotoxicity in albino Sprague-Dawley rat assessed as behavioral impairment at 30 mg/kg, po after 0.25 hrs by rotorod test; format: toxicity, organism-based; details: in vivo
# Rattus norvegicus [33] = assay: Anticonvulsant activity in albino Sprague-Dawley rat assessed as protection against maximal electroshock-induced seizures at 30 mg/kg, po after 0.25 hrs; format: functional, organism-based
# Rattus norvegicus [34] = assay: Anticonvulsant activity in ip dosed albino Sprague-Dawley rat assessed as protection against maximal electroshock-induced seizures; format: functional
# Mus musculus [35] = assay: Neurotoxicity in albino CF1 mouse assessed as behavioral impairment at 50 mg/kg, ip after 2 hrs by rotorod test; format: toxicity, organism-based; details: in vivo
# [36] = Protective index, ratio of TD50 for neurotoxicity in ip dosed albino Sprague-Dawley rat to ED50 for anticonvulsant activity in ip dosed subcutaneous metrazol-induced seizure albino Sprague-Dawley rat model; format: toxicity, organism-based; details: in vivo, read-out: Ratio TD50/ED50
# Rattus norvegicus [37] = assay: Anticonvulsant activity in albino Sprague-Dawley rat assessed as protection against maximal electroshock-induced seizures at 30 mg/kg, po after 2 hrs; format: functional, organism-based
# Mus musculus [38] = assay: Anticonvulsant activity in albino CF1 mouse assessed as protection against 44 mA current-induced seizure at 50 mg/kg, ip after 1 hr by 6 Hz psychomotor test; format: functional, organism-based
# Mus musculus [39] = assay: Neurotoxicity in albino CF1 mouse assessed as behavioral impairment at 50 mg/kg, ip after 0.25 hrs by rotorod test; format: toxicity, organism-based; details: in vivo
# Mus musculus [40] = assay: Anticonvulsant activity in albino CF1 mouse assessed as protection against 44 mA current-induced seizure at 50 mg/kg, ip after 2 hrs by 6 Hz psychomotor test; format: functional, organism-based
# Rattus norvegicus [41] = assay: Anticonvulsant activity in ip dosed albino Sprague-Dawley rat assessed as protection against subcutaneous metrazol-induced seizures by measuring time to peak effect; format: functional
# [42] = Neurotoxicity in ip dosed albino Sprague-Dawley rat assessed as motor impairment by rotorod test; format: toxicity, organism-based; details: in vivo
# Mus musculus [43] = assay: Anticonvulsant activity in albino CF1 mouse assessed as protection against 32 mA current-induced seizure at 30 mg/kg, ip after 0.5 hrs by 6 Hz psychomotor test; format: functional, organism-based
# [44] = Protective index, ratio of TD50 for neurotoxicity in ip dosed albino Sprague-Dawley rat to ED50 for anticonvulsant activity in ip dosed maximal electroshock-induced seizure albino Sprague-Dawley rat model; format: toxicity, organism-based; details: in vivo, read-out: Ratio TD50/ED50
# Mus musculus [45] = assay: Neurotoxicity in albino CF1 mouse assessed as behavioral impairment at 50 mg/kg, ip after 1 hr by rotorod test; format: toxicity, organism-based; details: in vivo
# Rattus norvegicus [46] = assay: Anticonvulsant activity in albino Sprague-Dawley rat assessed as protection against maximal electroshock-induced seizures at 30 mg/kg, po after 1 hr; format: functional, organism-based
# Rattus norvegicus [47] = assay: Anticonvulsant activity in ip dosed albino Sprague-Dawley rat assessed as protection against maximal electroshock-induced seizures by measuring time to peak effect; format: functional
# Mus musculus [48] = assay: Neurotoxicity in albino CF1 mouse assessed as behavioral impairment at 50 mg/kg, ip after 0.5 hrs by rotorod test; format: toxicity, organism-based; details: in vivo
# Mus musculus [49] = assay: Anticonvulsant activity in albino CF1 mouse assessed as protection against 44 mA current-induced seizure at 50 mg/kg, ip after 0.25 hrs by 6 Hz psychomotor test; format: functional, organism-based
# Rattus norvegicus [50] = assay: Anticonvulsant activity in ip dosed albino Sprague-Dawley rat assessed as protection against subcutaneous metrazol-induced seizures; format: functional
# Mus musculus [51] = assay: Anticonvulsant activity in ip dosed AGS-susceptible frings albino CF1 mouse assessed as protection against sound-induced seizures; format: functional
# [52] = Protective index, ratio of TD50 for neurotoxicity in ip dosed albino CF1 mouse to ED50 for anticonvulsant activity in ip dosed 6 Hz current-induced seizure albino CF1 mouse model; details: in vivo
# [53] = Protective index, ratio of TD50 for neurotoxicity in ip dosed albino CF1 mouse to ED50 for protection against sound-induced seizures in ip dosed AGS-susceptible frings albino CF1 mouse; format: toxicity, organism-based; details: CF1 (ED50 arm: AGS-susceptible Frings), in vivo, read-out: Ratio TD50/ED50
# Homo sapiens = assay: Anticonvulsant activity in patient assessed as improvement in seizure control at 600 mg/day administered up to 1 year; format: functional
# [54] = Volume of distribution in human; format: ADME, organism-based; details: in vivo
# [55] = Clearance in human; format: ADME, organism-based; details: in vivo
# [56] = Half life in human; format: ADME, organism-based; details: in vivo
compound,measurement,setting,value
CCC(CC)COC(=O)NCCCn1ccnc1,Activity,Rattus norvegicus [1],Non-toxic
same,Activity,Rattus norvegicus [2],Non-toxic
same,selectivity ratio,[3],3.9
same,Activity,Rattus norvegicus [4],Active
same,Activity,Rattus norvegicus [5],Non-toxic
same,Activity,Mus musculus [6],Non-toxic
same,Activity,Rattus norvegicus [7],Non-toxic
same,Time,Mus musculus [8],0.5 h
same,Time,Mus musculus [9],0.5 h
same,Activity,Mus musculus [10],Non-toxic
same,Activity,Mus musculus [11],Active
same,Activity,Rattus norvegicus [12],Non-toxic
same,ED50,Mus musculus [13],26 mg/kg
same,Activity,Rattus norvegicus [14],Non-toxic
same,Activity,Mus musculus [15],Toxic
same,Activity,Mus musculus [16],Toxic
same,Activity,Mus musculus [17],inactive
same,TD50,[18],102 mg/kg
same,ED50,Mus musculus [19],> 85 mg/kg
same,selectivity ratio,[20],1.2
same,Activity,Mus musculus [21],Non-toxic
same,Activity,Mus musculus [22],Active
same,Activity,Rattus norvegicus [23],Non-toxic
same,Activity,Mus musculus [24],Toxic
same,Time,Mus musculus [25],0.5 h
same,Activity,Mus musculus [26],inactive
same,Activity,Mus musculus [27],Non-toxic
same,Activity,Mus musculus [28],Active
same,Activity,Mus musculus [29],Toxic
same,Activity,Mus musculus [30],Active
same,ED50,Mus musculus [31],inactive
same,Activity,Rattus norvegicus [32],Non-toxic
same,Activity,Rattus norvegicus [33],inactive
CCCC(COC(=O)NCCCn1ccnc1)C(C)CC (centres undefined),Activity,Rattus norvegicus [1],Non-toxic
same,Activity,Rattus norvegicus [2],Non-toxic
same,ED50,Rattus norvegicus [34],20 mg/kg
same,selectivity ratio,[3],2.8
same,Activity,Mus musculus [35],Non-toxic
same,Activity,Rattus norvegicus [5],Non-toxic
same,Activity,Mus musculus [6],Non-toxic
same,Activity,Rattus norvegicus [7],Non-toxic
same,Time,Mus musculus [8],0.5 h
same,selectivity ratio,[36],1
same,Activity,Rattus norvegicus [37],inactive
same,Time,Mus musculus [9],0.5 h
same,Activity,Mus musculus [38],inactive
same,Activity,Mus musculus [10],Non-toxic
same,Activity,Rattus norvegicus [12],Non-toxic
same,ED50,Mus musculus [13],24 mg/kg
same,Activity,Mus musculus [39],Non-toxic
same,Activity,Rattus norvegicus [14],Non-toxic
same,Activity,Mus musculus [40],inactive
same,Time,Rattus norvegicus [41],0.25 h
same,TD50,[42],96 mg/kg
same,Activity,Mus musculus [43],inactive
same,selectivity ratio,[44],4.8
same,Activity,Mus musculus [45],Non-toxic
same,Activity,Mus musculus [16],Toxic
same,Activity,Mus musculus [17],inactive
same,TD50,[18],67 mg/kg
same,ED50,Mus musculus [19],> 100 mg/kg
same,selectivity ratio,[20],0.67
same,Activity,Rattus norvegicus [46],inactive
same,Activity,Mus musculus [21],Non-toxic
same,Time,Rattus norvegicus [47],0.25 h
same,Activity,Mus musculus [48],Non-toxic
same,Activity,Mus musculus [22],Active
same,Activity,Rattus norvegicus [23],Non-toxic
same,Activity,Mus musculus [24],Toxic
same,Time,Mus musculus [25],0.5 h
same,Activity,Mus musculus [26],inactive
same,Activity,Mus musculus [49],inactive
same,ED50,Rattus norvegicus [50],> 95 mg/kg
same,ED50,Mus musculus [31],inactive
same,Activity,Rattus norvegicus [32],Non-toxic
CCCC(C(N)=O)C(C)CC (centres undefined),ED50,Mus musculus [51],20 mg/kg
same,Time,Mus musculus [8],0.5 h
same,Time,Mus musculus [9],0.5 h
same,TD50,[18],48 mg/kg
same,ED50,Mus musculus [19],21 mg/kg
same,selectivity ratio,[20],2.3
same,selectivity ratio,[52],1.8
same,selectivity ratio,[53],2.4
same,Time,Mus musculus [25],0.5 h
same,ED50,Mus musculus [31],27 mg/kg
O=C(Cn1ccnc1)c1ccc2ccccc2c1 [NAFIMIDONE],Activity,Homo sapiens,33%
OC(Cn1ccnc1)c1ccc(CCc2ccccc2)cc1 (centres undefined) [DENZIMOL],Vd,[54],3 L/kg
same,clearance,[55],5 mL/min/kg
same,half-life,[56],5 h
